We go through 15 molecules from patent publication US5686486A, “4-hydroxy-benzopyran-2-ones and 4-hydroxy-cycloalkyl[b]pyran-2-ones useful to treat retroviral infections” (priority 1995, dated 1997).

Structures can show the parent of a compound that is named as a salt. Where two headings read alike, the source gives them in different places. Bounds are passed on as bounds.

This test deals with HIV-1 protease (Human immunodeficiency virus type 1 group M subtype B, UniProt P04585). Put plainly: biochemical. The conditions noted are these: for IC50: HIV-1 Protease IC50. In short, it runs like this:
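Percent inhibition derived from fluorescent cleavage product separated by filtration after streptavidin-bead capture of intact biotin/FITC substrate. Reaction: enzyme (10 μl, 0.1 μM stock) with substrate (20 μl, 0.2 μM stock) and compound, 1 h at room temperature in dark, pH 5.5 acetate buffer with 1.0 M NaCl and 0.05% NP-40.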

Where [1] appears, read: read-out: HIV-1 Protease % Inhib, dose 0.123 uM.
Where [2] appears, read: read-out: HIV-1 Protease % Inhib, dose 0.370 uM.
The mark [3] stands for this setting: read-out: HIV-1 Protease % Inhib, dose 1.100 uM.
[4] abbreviates: read-out: HIV-1 Protease % Inhib, dose 3.300 uM.
Setting [5] is: read-out: HIV-1 Protease % Inhib, dose 10.000 uM.
The mark [6] stands for this setting: read-out: HIV-1 Protease % Inhib, dose 30.000 uM.
Where [7] appears, read: dose 3.300 uM, read-out: HIV-1 Protease % Inhib.
Setting [8] is: dose 10.000 uM, read-out: HIV-1 Protease % Inhib.
[9] abbreviates: dose 30.000 uM, read-out: HIV-1 Protease % Inhib.
Setting [10] is: read-out: HIV-1 Protease % Inhib, dose 1.000 uM.
The mark [11] stands for this setting: read-out: HIV-1 Protease % Inhib, dose 100.000 uM.
[12] abbreviates: dose 1.100 uM, read-out: HIV-1 Protease % Inhib.
[13] abbreviates: dose 0.370 uM, read-out: HIV-1 Protease % Inhib.

`O=c1oc2c(c(O)c1C(c1cccc(NS(=O)(=O)c3ccc(Cl)cc3Cl)c1)C1CC1)CCCCCC2` (stereo not drawn) [Example 305, 2,4-Dichloro-N-[3-[cyclopropyl(5,6,7,8,9,10-hexahydro-4-hydroxy-2'-oxo-2H-cycloocta[b]pyran-3-yl)methyl]phenyl]-benzenesulfonamide]: the inhibition at 0.123 µM under setting [1] turned out to be 60.4%. Also, the inhibition at 0.37 µM under setting [2] was found to be 86.2%. Also, the inhibition at 1.1 µM under setting [3] stood at 92.4%. Further, the inhibition at 3.3 µM under setting [4] worked out at 95.2%. The inhibition at 10 µM under setting [5] worked out at 99.8%. Besides, the inhibition at 30 µM under setting [6] was 107%.
As for `CC(C)(C)OC(=O)NCc1ccc(C(c2c(O)c3c(oc2=O)CCCCCC3)C2CC2)o1` (stereo not drawn) [Example 480, 3-(α-Cyclopropyl(5-(N-carbo-t-butoxy)aminomethyl)furfur-2-yl)-4-hydroxy-5,6,7,8,9,10-hexahydrocycloocata[b]pyran-2-one], the inhibition at 3.3 µM under setting [7] turned out to be 19.2%. For the same molecule, the inhibition at 10 µM under setting [8] was determined as 45.5%. Further, the inhibition at 30 µM under setting [9] stood at 78.2%.
Consider `CC(C)CC(c1cccc(NS(=O)(=O)c2cccnc2)c1)c1c(O)c2c(oc1=O)CCCCCC2` (stereo not drawn) [Example 429, 3-Pyridinesulfonamide, N-[3-[1-(5,6,7,8,9,10-hexahydro4-hydroxy-2-oxo-2H-cycloocta[b]pyran-3-yl)-3-methylbutyl]phenyl]-], for which the inhibition at 0.123 µM under setting [1] was determined as 88.6%. Under setting [2], the inhibition at 0.37 µM turned out to be 98.2%. In addition, under setting [3], the inhibition at 1.1 µM stood at 99.9%. The inhibition at 3.3 µM under setting [4] was 103%. The inhibition at 10 µM under setting [5] was found to be 107%. In addition, under setting [6], the inhibition at 30 µM was determined as 108%.
Consider `CCC(c1cccc(NC(=O)CN)c1)c1c(O)c2ccccc2oc1=O` (stereo not drawn) [Example 46, Coumarin, 3-[1-[3-[[(aminomethyl)carbonyl]amino]phenyl]propyl]4-hydroxy-, trifluoroacetate (salt)], for which the 50% inhibitory concentration (IC50) was determined as 4200 nM. Also, the “HIV-1 Protease % Inhib” value (dose 100.000 uM) is given as 107%. Further, under setting [10], the inhibition at 1 µM stood at 22.1%. For the same molecule, the inhibition at 10 µM under setting [5] stood at 96.3%. Besides, under setting [11], the inhibition at 100 µM is 116%.
For `CCC(c1cccc(NC(=O)CC(C)(C)N)c1)c1c(O)c2ccccc2oc1=O` (stereo not drawn) [Example 48, Coumarin, 3-[1-[3-[(3-amino-3-methyl-1-oxobutyl)amino]phenyl]propyl]-4-hydroxy-, trifluoroacetate (salt)], the inhibition at 1 µM under setting [10] is under 10%. Moreover, the inhibition at 10 µM under setting [5] was under 10%. For the same molecule, the inhibition at 100 µM under setting [11] was 43.3%.
For `CCC(=O)c1ccc(C(CC)c2c(O)c3ccccc3oc2=O)cc1` (stereo not drawn) [Example 106, Coumarin, 4-hydroxy-3-[1-(4-propionylphenyl)propyl]-], the inhibition at 1 µM under setting [10] is under 10%. Under setting [5], the inhibition at 10 µM worked out at 11.7%. Besides, the inhibition at 100 µM under setting [11] is 71%.
For the molecule `Cn1cnc(S(=O)(=O)Nc2ccc(C(c3c(O)c4c(oc3=O)CCCCCC4)C3CC3)cc2)c1` (stereo not drawn) [Example 476, N-[4-[Cyclopropyl (5,6,7,8,9,10-hexahydro-4-hydroxy-2-oxo-2H-cycloocta[b]pyran-3-yl)methyl]phenyl]-1-methyl-1H-imidazole-4-sulfonamide], under setting [12], the inhibition at 1.1 µM came out at 19.5%. Moreover, the inhibition at 3.3 µM under setting [7] came out at 53.1%. The inhibition at 10 µM under setting [8] came out at 83%. Besides, the inhibition at 30 µM under setting [9] is 83.1%.
As for `CCC(C)C(NC(=O)c1cccc(C(C)c2c(O)c3ccccc3oc2=O)c1)C(=O)NCc1ccccn1` (stereo not drawn) [Example 30, Benzamide, 3-[1-(4-hydroxy-2-oxo-2H-1-benzopyran-3-yl)ethyl]-N-[2-methyl-1-[[(2-pyridinylmethyl)amino]carbonyl]butyl]-], under setting [10], the inhibition at 1 µM is under 10%. The inhibition at 10 µM under setting [5] is 65.3%. Besides, under setting [11], the inhibition at 100 µM was 109%.
The molecule `CCC(c1cccc(NC(=O)C(C)N)c1)c1c(O)c2ccccc2oc1=O` (stereo not drawn) [Example 61, Propanamide, 2-amino-N-[3-[1-(4-hydroxy-2-oxo-2H-1-benzopyran-3-yl)propyl]phenyl]-, mono(trifluoroacetate) (salt)] came in with an IC50 of 1000 nM. Moreover, the inhibition at 1 µM under setting [10] was 77.8%. The inhibition at 10 µM under setting [5] was found to be 115%. Besides, the inhibition at 100 µM under setting [11] turned out to be 119%.
On to `O=c1oc2c(c(O)c1C(c1ccccc1)C1CC1)CCC2` (stereo not drawn) [Example 113, 3-(Cyclopropylphenylmethyl)-6,7-dihydro-4-hydroxy-cyclopenta[b]pyran-2(5H)-one], for which the inhibition at 1 µM (dose 1.000 uM, read-out: HIV-1 Protease % Inhib) came to 39.6%. Moreover, the inhibition at 10 µM under setting [8] came out at 99.8%. Moreover, where the note is “dose 100.000 uM, read-out: HIV-1 Protease % Inhib”, the inhibition at 100 µM was determined as 109%.
On to `O=c1oc2c(c(O)c1C(c1ccccc1)C1CC1)CCCCC2CC1CCCOC1` (stereo not drawn) [Example 187, 3-(Cyclopropylphenylmethyl)-6,7,8,9-tetrahydro-4-hydroxy-9-[(tetrahydro-2H-pyran-3-yl)methyl]-cyclohepta[b]pyran-2(5H)-one], for which the inhibition at 0.37 µM under setting [13] was found to be 10.6%. For the same molecule, under setting [12], the inhibition at 1.1 µM was found to be 32.9%. The inhibition at 3.3 µM under setting [7] was 68%. The inhibition at 10 µM under setting [8] came out at 90%. For the same molecule, the inhibition at 30 µM under setting [9] was 90.2%.
For the molecule `CC(C)C(c1cccc(NS(=O)(=O)c2cccnc2)c1)c1c(O)c2c(oc1=O)CCCCCC2` (stereo not drawn) [Example 417, 3-Pyridinesulfonamide, N-[3-[1-(5,6,7,8,9,10-hexahydro4-hydroxy-2-oxo-2H-cycloocta[b]pyran-3-yl)-2-methylpropyl]phenyl]-], the inhibition at 0.123 µM under setting [1] is 36.4%. In addition, the inhibition at 0.37 µM under setting [2] came out at 65.9%. Further, the inhibition at 1.1 µM under setting [3] amounted to 89.2%. Under setting [4], the inhibition at 3.3 µM was 95.1%. Also, the inhibition at 10 µM under setting [5] came out at 102%. For the same molecule, under setting [6], the inhibition at 30 µM was 97.3%.
As for `CC(C)(C)OC(=O)NCCCC(=O)Nc1cccc(C(c2c(O)c3c(oc2=O)CCCCCC3)C2CC2)c1` (stereo not drawn) [Example 201, Carbamic acid, [4-[[3-[cyclopropyl(5,6,7,8,9,10-hexahydro,-hydroxy-2-oxo-2H-cycloocta[b]pyran-3-yl)methyl]phenyl]amino]-4-oxybutyl]-, 1,1-dimethylethyl ester], the inhibition at 0.123 µM under setting [1] amounted to 31.2%. Besides, the inhibition at 0.37 µM under setting [2] was 60.1%. Also, the inhibition at 1.1 µM under setting [3] came out at 80%. Besides, the inhibition at 3.3 µM under setting [4] was 95.4%. Also, the inhibition at 10 µM under setting [5] was 100%. Moreover, the inhibition at 30 µM under setting [6] stood at 107%.
`O=c1oc2c(c(O)c1C(c1cccc(NS(=O)(=O)CCCN3CCOCC3)c1)C1CC1)CCCCCC2` (stereo not drawn) [Example 365B (Second Title Compound), N-[3-[Cyclopropyl(5,6,7,8,9,10-hexahydro-4-hydroxy-2-oxo-2H-cycloocta[b]pyran-3-yl)methyl]phenyl]-4-morpholinepropanesulfonamide]: for the setting “dose 0.123 uM, read-out: HIV-1 Protease % Inhib”, the inhibition at 0.123 µM turned out to be 33.2%. For the same molecule, under setting [13], the inhibition at 0.37 µM was determined as 68.2%. Moreover, the inhibition at 1.1 µM under setting [12] worked out at 94%. In addition, the inhibition at 3.3 µM under setting [7] was determined as 87.3%. The inhibition at 10 µM under setting [8] worked out at 92.6%. In addition, under setting [9], the inhibition at 30 µM came to 89.1%.
Take `Cc1cccc(S(=O)(=O)Nc2cccc(C(c3c(O)c4c(oc3=O)CCCCCC4)C3CC3)c2)c1` (stereo not drawn) [Example 336, N-[3-[Cyclopropyl(5,6,7,8,9,10-hexahydro-4-hydroxy-2-oxo-2H-cycloocta[b]pyran-3-yl)methyl]phenyl]-3-methyl-benzenesulfonamide]: the inhibition at 0.123 µM under setting [1] is 73.5%. Besides, the inhibition at 0.37 µM under setting [2] turned out to be 87.3%. In addition, under setting [3], the inhibition at 1.1 µM came out at 93%. Moreover, the inhibition at 3.3 µM under setting [4] stood at 94.6%. Also, the inhibition at 10 µM under setting [5] amounted to 103%. Further, the inhibition at 30 µM under setting [6] amounted to 108%.
